These results are taken from US10287271B2, “Indole compounds having antiprotozoal activity and its use as well as methods for producing the same” (TECHNISCHE UNIVERSITAET BRAUNSCHWEIG, priority 2015, dated 2019).

A value given as a limit tells only on which side of the number the result lay.

The test system of this assay is NF54-luc P. falciparum. Put plainly: luciferase-based viability assay, erythrocytic stages of transgenic NF54-luc P. falciparum. The class given is cell-based, Plasmodium falciparum. The note with it: for inhibition at 3 µM / inhibition at 30 µM / EC50: Plasmodium falciparum; for inhibition at 3 µM / inhibition at 30 µM: NF54, 48 hours; for inhibition at 3 µM: 3 μM test compound; for inhibition at 30 µM: 30 μM test compound; for EC50: erythrocytic stages NF54-luc, 48 hours incubation, titration. The procedure:
Erythrocytic stages of transgenic NF54-luc P. falciparum were used for the luciferase-based viability assay. First, the culture was dispensed in triplicate into white 96-well flat bottom plates (each well contains 250 ul) (NUNC, Denmark) with parasitemia of 0.5-1%. Then the cultures were incubated in the presence of a 30 μM concentration of the test compounds for 48 hours (37° C., 90% N2, 5% CO2, and 5% O2). Subsequently, 100 ul RPMI1640 media was removed from each well and a 100 μL volume of the Bright-Glo® substrate solution was added to each well. One of the cleavage products of the reaction is light, which was measured by a FLUOROSKAN FL luminometer (Thermo) machine; thereby detecting the amount of living parasites. In case the inhibition of the proliferation exceeded 50%, the experiments were repeated with 3 μM solutions. […] The EC50 value is the half maximal effective concentration (the concentration at which half maximal inhibition is observed). Untreated cultures were used as negative controls and to calculate the inhibition rate (0% inhibition of parasite growth). Blasticidin (Sigma-Aldrich, St. Louis, Mo.), a drug used for selection of transfected parasites, was included as a positive control on each plate and gave >90% inhibition of parasite growth at 2 μg/mL.

Consider `CN(CC[C@H](N)CC(=O)N[C@H]1C=C[C@H](n2ccc(N)nc2=O)O[C@@H]1C(=O)O)C(=N)N` [Blasticidin, reference compound], for which the “inhibition of parasite growth” value (positive control at 2 μg/mL) is greater than 90%.
As for `O=c1c(-c2c(-c3ccccc3)[nH]c3ccccc23)c(-c2c(-c3ccccc3)[nH]c3ccccc23)c1=O` [KuHL009, 3,4-Bis(2-phenyl-1H-indol-3-yl)cyclobut-3-ene-1,2-dione], testing at 3 µM gave an inhibition of 41.1 ± 0.6%, at 30 µM the inhibition was 98.9 ± 0.8% and the EC50 is 2.47 µM.
For the compound `Cc1[nH]c2ccccc2c1-c1c(-c2c(C)[nH]c3ccccc23)c(=O)c1=O` [KuHL012, 3,4-Bis(2-methyl-1H-indol-3-yl)cyclobut-3-ene-1,2-dione], the inhibition at 3 µM stood at 18.3 ± 6.3% and testing at 30 µM gave an inhibition of 77.8 ± 5.9%.
`COc1ccc2[nH]cc(-c3c(-c4c(C)[nH]c5ccccc45)c(=O)c3=O)c2c1` [KuHL018, 3-(5-Methoxy-1H-indol-3-yl)-4-(2-methyl-1H-indol-3-yl)cyclobut-3-en-1,2-dione] displayed an inhibition at 3 µM of 34.2 ± 8%, an inhibition at 30 µM of 99.6 ± 0.2% and an EC50 of 10 µM.
Compound `Cc1[nH]c2ccccc2c1-c1c(-c2c[nH]c3ccccc23)c(=O)c1=O` [KuHL025, 3-(1H-Indol-3-yl)-4-(2-methyl-1H-indol-3-yl)cyclobut-3-ene-1,2-dione] had an inhibition at 3 µM of 23.4 ± 5.4%, an inhibition at 30 µM of 98.8 ± 0.5% and an EC50 greater than 30 µM.
The matching figures for `Cc1[nH]c2ccccc2c1-c1c(-c2c(-c3ccccc3)[nH]c3ccccc23)c(=O)c1=O` [KuHL026, 3-(2-Methyl-1H-indol-3-yl)-4-(2-phenyl-1H-indol-3-yl)cyclobut-3-ene-1,2-dione]: 41.1 ± 1.7%, 98.4 ± 0.5% and 9.26 µM.
Take `Cc1[nH]c2ccccc2c1-c1c(-c2c[nH]c3ccc(Br)cc23)c(=O)c1=O` [KuHL027, 3-(5-Bromo-1H-indol-3-yl)-4-(2-methyl-1H-indol-3-yl)cyclobut-3-ene-1,2-dione]: testing at 3 µM gave an inhibition of 45.6 ± 1.8%, the inhibition at 30 µM is 99.3 ± 0.4% and the EC50 is 30.5 µM.
The matching figures for `Cn1cc(-c2c(-c3c[nH]c4ccccc34)c(=O)c2=O)c2ccccc21` [KuHL032, 3-(1H-Indol-3-yl)-4-(1-methyl-1H-indol-3-yl)cyclobut-3-ene-1,2-dione]: 52 ± 1.8%, 98.7 ± 1.1% and 2.97 µM.
Compound `O=c1c(-c2c[nH]c3ccccc23)c(-c2c[nH]c3ccc(Br)cc23)c1=O` [KuHL037, 3-(5-Bromo-1H-indol-3-yl)-4-(1H-indol-3-yl)cyclobut-3-ene-1,2-dione] registered an inhibition at 3 µM of 65.9 ± 1.8%, an inhibition at 30 µM of 99.5 ± 0.4% and an EC50 of 3.02 µM.
Taken in the same sequence, the figures for `O=c1c(-c2c[nH]c3ccccc23)c(-c2c[nH]c3ccccc23)c1=O` [KuHL043, 3,4-Bis(1H-indol-3-yl)cyclobut-3-ene-1,2-dione] were 17.9 ± 3.3%, 99.2 ± 0.2% and 8.33 µM.
Taken in the same sequence, the figures for `O=c1c(-c2c[nH]c3ccccc23)c(-c2c(-c3ccccc3)[nH]c3ccccc23)c1=O` [KuHL044, 3-(1H-Indol-3-yl)-4-(2-phenyl-1H-indol-3-yl)cyclobut-3-ene-1,2-dione] were 65 ± 2.8%, 99.7 ± 0.1% and 6.38 µM.
The matching figures for `COc1ccc2[nH]cc(-c3c(-c4c[nH]c5ccc(Br)cc45)c(=O)c3=O)c2c1` [KuHL047, 3-(5-Bromo-1H-indol-3-yl)-4-(5-methoxy-1H-indol-3-yl)cyclobut-3-ene-1,2-dione]: 100%, 98.8 ± 0.7% and 0.47 µM.
Consider `COc1ccc2[nH]cc(-c3c(-c4c[nH]c5ccc(OC)cc45)c(=O)c3=O)c2c1` [KuHL048, 3,4-Bis(5-methoxy-1H-indol-3-yl)cyclobut-3-ene-1,2-dione], for which the inhibition at 3 µM stood at 19.7 ± 3.6% and the inhibition at 30 µM worked out at 79.3 ± 1.3%.
The compound `COc1ccc2[nH]cc(-c3c(-c4c[nH]c5ccccc45)c(=O)c3=O)c2c1` [KuHL049, 3-(1H-Indol-3-yl)-4-(5-methoxy-1H-indol-3-yl)cyclobut-3-ene-1,2-dione] came in with an inhibition at 3 µM of 18.3 ± 5%.
With `Cc1[nH]c2ccccc2c1-c1c(-c2cn(C)c3ccccc23)c(=O)c1=O` [KuHL050, 3-(1-Methyl-1H-indol-3-yl)-4-(2-methyl-1H-indol-3-yl)cyclobut-3-ene-1,2-dione], the inhibition at 3 µM was determined as 59.6 ± 0.2%, at 30 µM the inhibition was 99.3 ± 0.3% and the EC50 turned out to be 2.67 µM.
For `COc1ccc2[nH]cc(-c3c(-c4cn(C)c5ccccc45)c(=O)c3=O)c2c1` [KuHL057, 3-(5-Methoxy-1H-indol-3-yl)-4-(1-methyl-1H-indol-3-yl)cyclobut-3-ene-1,2-dione], the inhibition at 30 µM was 13.6 ± 3.9%.
In the case of `COc1ccc2[nH]cc(-c3c(-c4c(-c5ccccc5)[nH]c5ccccc45)c(=O)c3=O)c2c1` [KuHL058, 3-(5-Methoxy-1H-indol-3-yl)-4-(2-phenyl-1H-indol-3-yl)cyclobut-3-ene-1,2-dione], the inhibition at 3 µM was found to be 22.4 ± 2.7%.
The same measure, in the same setting: for `O=c1c(-c2c[nH]c3ccc(Br)cc23)c(-c2c(-c3ccccc3)[nH]c3ccccc23)c1=O` [KuHL071, 3-(5-Bromo-1H-indol-3-yl)-4-(2-phenyl-1H-indol-3-yl)cyclobut-3-ene-1,2-dione] the value was 16 ± 0.7%.
Take `Cn1cc(-c2c(-c3c(-c4ccccc4)[nH]c4ccccc34)c(=O)c2=O)c2ccccc21` [KuHL072, 3-(1-Methyl-1H-indol-3-yl)-4-(2-phenyl-1H-indol-3-yl)cyclobut-3-ene-1,2-dione]: the inhibition at 3 µM was found to be 67.7 ± 0.7% and the EC50 was determined as 1.72 µM.
The compound `Cc1[nH]c2ccccc2c1-c1c(-c2cn(C)c3ccc(Br)cc23)c(=O)c1=O` [KuHL077, 3-(5-Bromo-1-methyl-1H-indol-3-yl)-4-(2-methyl-1H-indol-3-yl)cyclobut-3-ene-1,2-dione] gave an inhibition at 3 µM of 12.7 ± 2.8%.
`COc1ccc2[nH]cc(-c3c(-c4c[nH]c5ccc(I)cc45)c(=O)c3=O)c2c1` [KuHL101, 3-(5-Iodo-1H-indol-3-yl)-4-(5-methoxy-1H-indol-3-yl)cyclobut-3-ene-1,2-dione] came in with an inhibition at 3 µM of 99.1 ± 0.4% and an EC50 of 0.65 µM.
The matching figures for `COc1ccc2[nH]cc(-c3c(-c4c[nH]c5ccc(Cl)cc45)c(=O)c3=O)c2c1` [KuHL102, 3-(5-Chloro-1H-indol-3-yl)-4-(5-methoxy-1H-indol-3-yl)cyclobut-3-ene-1,2-dione]: 87 ± 0.5% and 1.52 µM.
Regarding `COc1ccc2[nH]cc(-c3c(-c4c[nH]c5ccc(C#N)cc45)c(=O)c3=O)c2c1` [KuHL103, 3-[2-(5-Methoxy-1H-indol-3-yl)-3,4-dioxocyclobut-1-ene-1-yl]-1H-indol-5-carbonitrile], 3 µM produced 26.8 ± 1.1% inhibition.
`COc1ccc2[nH]cc(-c3c(-c4c[nH]c5ccc(F)cc45)c(=O)c3=O)c2c1` [KuHL113, 3-(5-Fluoro-1H-indol-3-yl)-4-(5-methoxy-1H-indol-3-yl)cyclobut-3-ene-1,2-dione] had an inhibition at 3 µM of 19.3 ± 3.1%.
On the same count and under the same terms, for `O=c1c(-c2c[nH]c3ccccc23)c(-c2c[nH]c3ccc(I)cc23)c1=O` [KuHL117, 3-(1H-indol-3-yl)-4-(5-iodo-1H-indol-3-yl)cyclobut-3-ene-1,2-dione] the value was 31.3 ± 2.7%; for `O=c1c(-c2c[nH]c3ccccc23)c(-c2c[nH]c3ccc(Cl)cc23)c1=O` [KuHL118, 3-(5-Chloro-1H-indol-3-yl)-4-(1H-indol-3-yl)cyclobut-3-ene-1,2-dione], 44.7 ± 0.5%.
Still for that read-out and setting: to `N#Cc1ccc2[nH]cc(-c3c(-c4c[nH]c5ccccc45)c(=O)c3=O)c2c1` [KuHL122, 3-[2-(1H-Indol-3-yl)-3,4-dioxocyclobut-1-ene-1-yl]-1H-indol-5-carbonitrile] belongs 26.8 ± 1.6%; to `COc1ccc2[nH]cc(-c3c(-c4c[nH]c5ccc(OCc6ccccc6)cc45)c(=O)c3=O)c2c1` [KuHL136, 3-[5-(Benzyloxy)-1H-indol-3-yl]-4-(5-methoxy-1H-indol-3-yl)cyclobut-3-ene-1,2-dione], 21.7 ± 2.5%.

Broadly, the inhibition is the change of the read-out against control, counted positive when it falls. Read a high inhibition as a strong effect. What is called EC50 is the concentration needed to bring the measured effect to its halfway point. Read a high EC50 as weaker potency.
